Data as given in article PMC7716890 (Clinical Pharmacokinetics, 2020).
Entries after “also recorded” stand apart in the source; their conditions may differ. Read-outs that look alike come from different tables or passages of the source.

Tests used:
[1] = Safety and tolerability assessment; format: in vivo, healthy male subjects; conditions: one subject, upon administration of probenecid 1000 mg
[2] = Plasma concentrations of the transporter inhibitors around expected time to Cmax; format: in vivo, healthy male subjects; conditions: cimetidine 400 mg multiple doses; current study
[3] = cited from earlier work
[4] = for AUC0–tz Ratio T/R / Cmax Ratio T/R: cocktail + cimetidine vs cocktail alone
[5] = for AUC0–tz Ratio T/R / Cmax Ratio T/R: cocktail + probenecid vs cocktail alone
[6] = cocktail + rifampin vs cocktail alone
[7] = cocktail + verapamil vs cocktail alone
[8] = cocktail with single-dose rifampin vs cocktail alone
[9] = cocktail with single-dose verapamil vs cocktail alone
[10] = cocktail (metformin 10 mg) with cimetidine vs cocktail alone
[11] = cocktail (furosemide 1 mg) with probenecid vs cocktail alone
[12] = metformin 500 mg with cimetidine vs alone

Row | Compound | AUC0–tz Ratio T/R [6] | Cmax Ratio T/R [6] | AUC0–tz Ratio T/R [7] | Cmax Ratio T/R [7] | increase of AUC0–tz [8] | increase of Cmax [8] | increase of AUC0–tz [4, 10] | AUC0–tz Ratio T/R [4] | Cmax Ratio T/R [4] | AUC0–tz Ratio T/R [5] | Cmax Ratio T/R [5] | decrease of CLR [5, 11] | also measured
1 | CCCN(CCC)S(=O)(=O)c1ccc(C(=O)O)cc1 [Probenecid, probenecid] |  |  |  |  |  |  |  |  |  |  |  |  | AEs leading to premature withdrawal from treatment [1]: nausea, dizziness
2 | CN/C(=N/CCSCc1nc[nH]c1C)NC#N [Cimetidine, cimetidine] |  |  |  |  |  |  |  |  |  |  |  |  | maximum plasma concentrations [2]: 4.24 to 11.1 µM
3 | C[C@H]1O[C@@H](O[C@H]2[C@@H](O)C[C@H](O[C@H]3[C@@H](O)C[C@H](O[C@H]4CC[C@@]5(C)[C@H](CC[C@@H]6[C@@H]5C[C@@H](O)[C@]5(C)[C@@H](C7=CC(=O)OC7)CC[C@]65O)C4)O[C@@H]3C)O[C@@H]2C)C[C@H](O)[C@@H]1O [Digoxin, digoxin] | 131.41% | 218.26% | 100.70% | 121.64% | 31% | 118% | 26% | 125.61% | 122.03% | 106.78% | 87.07% |  | increase in exposure ([3]; digoxin with verapamil administered over multiple days): 44–77%; effect on AUC0–tz [9]: unaltered; also recorded: unchanged; effect on CLR [9]: unchanged; increase of Cmax [9]: 22%; effect of probenecid on systemic exposure ([5]; cocktail with probenecid vs cocktail alone): no relevant effect
4 | CC(C)c1nc(N(C)S(C)(=O)=O)nc(-c2ccc(F)cc2)c1/C=C/[C@@H](O)C[C@@H](O)CC(=O)O [Rosuvastatin, rosuvastatin] | 348.06% | 1125.10% | 113.40% | 115.39% | 248% | 1025% |  | 107.42% | 116.88% | 223.24% | 428.23% | 78% | effect of verapamil on systemic exposure [9]: no effect; effect of cimetidine on systemic exposure ([4]; cocktail with cimetidine vs cocktail alone): no effect; increase of AUC0–tz [5, 11]: 123%; increase of Cmax [5, 11]: 328%
5 | NS(=O)(=O)c1cc(C(=O)O)c(NCc2ccco2)cc1Cl [Furosemide, furosemide] |  |  |  |  |  |  |  |  |  |  |  | 74% | decrease of CLR ([5]; furosemide 40 mg with probenecid vs alone): 76%
6 | CN(C)C(=N)N=C(N)N [Metformin, metformin] |  |  |  |  |  |  | 31% |  |  |  |  |  | increase in systemic exposure ([3]; metformin with cimetidine, previous findings): 45–70%; increase in exposure ([3]; metformin with rifampin coadministration): 10%; increase of Cmax [4, 10]: 23%; increase of AUC0–tz [4, 12]: 51%; increase of Cmax [4, 12]: 41%
